Data from US20250289827A1, “MORPHIC FORMS OF A MUTANT BRAF DEGRADER AND METHODS OF MANUFACTURE THEREOF” (C4 THERAPEUTICS, INC., priority 2022, published 2025).

Assay: Equilibration under a temperature cycle (XRPD)
Format: physicochemical
Description: The equilibration was executed with a stirring bar on a magnetic stirring plate at a rate of 300 rpm. The obtained suspensions were filtered through a 0.45 µm nylon membrane filter by centrifugation at 14,000 rpm. Solid parts (wet cakes) were investigated by XRPD.

[1] = Acetone, temperature cycle 5° C. to 40° C.
[2] = Acetonitrile, temperature cycle 5° C. to 40° C.
[3] = DMF, temperature cycle 5° C. to 40° C.
[4] = Ethyl acetate, temperature cycle 5° C. to 40° C.
[5] = Isopropanol, temperature cycle 5° C. to 40° C.
[6] = Isopropyl acetate, temperature cycle 5° C. to 40° C.
[7] = Methanol, temperature cycle 5° C. to 40° C.
[8] = THF/heptane (v:v = 1:1), temperature cycle 5° C. to 40° C.
[9] = Toluene, temperature cycle 5° C. to 40° C.
[10] = temperature cycle, Acetone/water (v:v = 86:14) a.w. = 0.6
[11] = temperature cycle, Acetonitrile/water (v:v = 96:4) a.w. = 0.65
[12] = temperature cycle, DCM/methanol (v:v = 1:1)
[13] = temperature cycle, DMF/water (v:v = 30:70) a.w. = 0.9
[14] = temperature cycle, DMF/water (v:v = 73:27) a.w. = 0.6
[15] = temperature cycle, DMSO/water (v:v = 23:77) a.w. = 0.9
[16] = temperature cycle, DMSO/water (v:v = 57:43) a.w. = 0.6
[17] = temperature cycle, Methanol/water (v:v = 69:31) a.w. = 0.6
[18] = temperature cycle, THF/water (v:v = 82:18) a.w. = 0.9
[19] = temperature cycle, THF/water (v:v = 92:8) a.w. = 0.6

For `CCN(C)S(=O)(=O)Nc1ccc(F)c(Oc2ccc3ncn([C@H]4COC5(CCN(C(=O)CC6(O)CCN(c7cc8c(cc7F)c(N7CCC(=O)NC7=O)nn8C)CC6)CC5)C4)c(=O)c3c2)c1C#N` [Compound 1 Form A], the Comments (1,4-Dioxane/heptane (v:v = 1:1), temperature cycle 5° C. to 40° C.) was “Sticky material”, the “XRPD (solid form after equilibration)” value (2-MeTHF, temperature cycle 5° C. to 40° C., about 20 cycles) was “Form C (about 20” and the Comments (2-MeTHF, temperature cycle 5° C. to 40° C., after about 8 more cycles) was “Form C converted”. For the same compound, the Comments [1] was “Low crystallinity”, the “XRPD (solid form after equilibration)” value [1] was “Form B” and the “Comments (crystallinity)” value [2] was “Medium”. The “XRPD (solid form after equilibration)” value [2] was “Form B”, the Comments (DCM/heptane (v:v = 1:1), temperature cycle 5° C. to 40° C.) was “Sticky material” and the Comments [3] was “Clear solution”. For the same compound, the “Comments: concentration of clear solution” value (shortened to “Comments: concentration”) [3] was “(About 500 mg/mL)”, the “XRPD (solid form after equilibration)” value (Ethanol, temperature cycle 5° C. to 40° C.) was “Almost amorphous” and the Comments [4] was “Low crystallinity”. For the same compound, the “XRPD (solid form after equilibration)” value [4] was “Form B”, the Comments [5] was “Low crystallinity” and the “XRPD (solid form after equilibration)” value [5] was “Form A”. The Comments [6] was “Low crystallinity”, the “XRPD (solid form after equilibration)” value [6] was “Form A” and the “XRPD (solid form after equilibration)” value (MTBE, temperature cycle 5° C. to 40° C.) was “Almost amorphous”. For the same compound, the Comments [7] was “Low crystallinity”, the “XRPD (solid form after equilibration)” value [7] was “Form B” and the “XRPD (solid form after equilibration)” value (Methyl ethyl ketone, temperature cycle 5° C. to 40° C.) was “Almost amorphous”. For the same compound, the Comments [8] was “Low crystallinity”, the “XRPD (solid form after equilibration)” value [8] was “Form B” and the Comments [9] was “Low crystallinity”. For the same compound, the “XRPD (solid form after equilibration)” value [9] was “Form A”, the Comments (temperature cycle, Acetone/water (v:v = 36:64) a.w. = 0.9) was “Sticky material” and the Comments [10] was “Clear solution”. The “Comments: concentration” value [10] was “(About 500 mg/mL)”, the Comments (temperature cycle, Acetonitrile/water (v:v = 42:58) a.w. = 0.9) was “Sticky material” and the Comments [11] was “Medium crystallinity”. The XRPD [11] was “Form B**”, the Comments [12] was “Clear solution” and the “Comments: concentration” value [12] was “(About 500 mg/mL)”. For the same compound, the Comments [13] was “Low crystallinity”, the XRPD [13] was “Form B” and the Comments [14] was “Medium crystallinity”. The XRPD [14] was “Form B”, the Comments [15] was “Low crystallinity” and the XRPD [15] was “Form A”. The Comments [16] was “Low crystallinity”, the XRPD [16] was “Form A” and the Comments [17] was “Low crystallinity”. For the same compound, the XRPD [17] was “Form B”, the Comments [18] was “Clear solution” and the “Comments: concentration” value [18] was “(About 500 mg/mL)”. The Comments [19] was “Clear solution” and the “Comments: concentration” value [19] was “(About 500 mg/mL)”.
